Source: EPA's ToxRefDB 2

What was measured:
rat [1] = conditions: Multigenerational reproductive toxicity study, sprague dawley, Oral, Gavage/Intubation, dose end: 2 generation
rat [2] = conditions: Subchronic oral toxicity in rodents, sprague dawley, Gavage/Intubation, dose end: 90 day, group: systemic
mouse [3] = conditions: Carcinogenicity, b6c3f1, Oral, Feed, dose end: 78 week, group: systemic
mouse [4] = conditions: Subchronic oral toxicity in rodents, b6c3f1, Feed, dose end: 45 day, group: systemic, systemic / in life observation / mortality / mortality
rat [5] = conditions: Carcinogenicity; fischer; Oral; Feed; dose end: 78 week; group: systemic; systemic / in life observation / body weight / body weight gain + systemic / pathology microscopic / peritoneum / neoplasm nos + systemic / …
rat [6] = conditions: Subchronic oral toxicity in rodents, fischer, Feed, dose end: 45 day, group: systemic, systemic / in life observation / body weight / body weight gain
mouse [7] = conditions: Prenatal developmental toxicity study, cd1, Oral, Gavage/Intubation, dose end: 15 GD
rat [8] = conditions: Subchronic oral toxicity in rodents, other, Feed, dose end: 90 day, group: systemic
rat [9] = conditions: Combined chronic toxicity/carcinogenicity, sprague dawley, Oral, Feed, dose end: 104 week, group: systemic
rat [10] = conditions: Multigenerational reproductive toxicity study, sprague dawley, Oral, Feed, dose end: 2 generation
dog [11] = conditions: Subchronic oral toxicity in nonrodent, beagle, Gavage/Intubation, dose end: 13 week, group: systemic, systemic / hematology / mean corpuscular hemoglobin (mch) / mean corpuscular hemoglobin (mch) + systemic / hematology / mean corpuscular …
mouse [12] = conditions: Subchronic oral toxicity in rodents, b6c3f1, Feed, dose end: 15 week
mouse [13] = conditions: Combined chronic toxicity/carcinogenicity, b6c3f1, Oral, Feed, dose end: 104 week, group: systemic
rat [14] = conditions: Prenatal developmental toxicity study, sprague dawley, Oral, Gavage/Intubation, dose end: 15 GD
rabbit = conditions: Prenatal developmental toxicity study, new zealand white, Oral, Gavage/Intubation, dose end: 19 GD
dog [15] = conditions: Chronic toxicity; beagle; Oral; Gavage/Intubation; dose end: 52 week; group: systemic; systemic / clinical chemistry / albumin / albumin + systemic / clinical chemistry / alkaline phosphatase (alp/alk) / alkaline phosphatase (…
rat [16] = conditions: Subchronic oral toxicity in rodents, sprague dawley, Gavage/Intubation, dose end: 90 day, group: systemic; remark: listed apart in the source
rat [17] = conditions: Multigenerational reproductive toxicity study, sprague dawley, Oral, Gavage/Intubation, dose end: 1 generation
rat [18] = conditions: Prenatal developmental toxicity study, sprague dawley, Oral, Gavage/Intubation, dose end: 20 GD
[19] = group: offspring, systemic / organ weight / spleen / absolute
[20] = group: offspring, systemic / organ weight / spleen / absolute + systemic / pathology microscopic / kidney / edema + systemic / pathology microscopic / kidney…
[21] = group: parental, systemic / in life observation / body weight / body weight + systemic / in life observation / body weight / body weight gain + systemic / in…
[22] = systemic / clinical chemistry / albumin / albumin + systemic / clinical chemistry / protein / protein + systemic / pathology microscopic / …
[23] = systemic / organ weight / spleen / absolute + systemic / organ weight / spleen / relative to body weight + systemic / organ weight / spleen…
[24] = systemic / in life observation / body weight / body weight
[25] = systemic / in life observation / body weight / body weight + systemic / in life observation / mortality / mortality
[26] = group: developmental, developmental / developmental malformation / bone / [other] + developmental / developmental malformation / general / [other] + systemic / in…
[27] = group: maternal, reproductive / reproductive performance / implantations / implantations + reproductive / reproductive performance / resorptions / …
[28] = group: maternal, systemic / pathology gross / spleen / enlarged
[29] = systemic / in life observation / body weight / body weight gain
[30] = systemic / in life observation / body weight / body weight gain + systemic / clinical chemistry / albumin / albumin + systemic / clinical …
[31] = group: offspring, systemic / in life observation / body weight / offspring (pup) weight gain + systemic / in life observation / body weight / offspring (pup) …
[32] = group: parental, systemic / in life observation / body weight / body weight + systemic / in life observation / body weight / body weight gain
[33] = group: reproductive, reproductive / offspring survival early / litter size / litter size
[34] = group: reproductive, reproductive / offspring survival early / litter size / litter size + reproductive / reproductive performance / fertility / fertility
[35] = group: maternal, reproductive / reproductive performance / fertility / fertility
[36] = group: systemic, systemic / clinical chemistry / alkaline phosphatase (alp/alk) / alkaline phosphatase (alp/alk) + systemic / hematology / hematocrit (hct…
[37] = group: systemic, systemic / in life observation / food consumption / food consumption
[38] = systemic / clinical chemistry / albumin / albumin + systemic / clinical chemistry / alkaline phosphatase (alp/alk) / alkaline phosphatase (…
[39] = systemic / organ weight / kidney / relative to body weight + systemic / organ weight / kidney / absolute
[40] = group: developmental, developmental / developmental malformation / bone / absent
[41] = group: developmental, systemic / in life observation / body weight / fetal weight
[42] = group: maternal, systemic / in life observation / body weight / body weight gain
[43] = group: developmental, systemic / in life observation / body weight / fetal weight + developmental / developmental malformation / bone / misshapen + developmental…
[44] = group: maternal, reproductive / reproductive performance / postimplantation loss / postimplantation loss + reproductive / reproductive performance / …
[45] = systemic / clinical chemistry / peroxisomal beta-oxidation analysis / peroxisomal beta-oxidation analysis + systemic / organ weight / liver…
[46] = systemic / hematology / neutrophils / neutrophils
[47] = group: offspring, systemic / in life observation / body weight / offspring (pup) weight
[48] = group: parental, systemic / in life observation / body weight / body weight gain + systemic / in life observation / clinical signs / fur (altered appearance…
[49] = group: maternal, systemic / in life observation / body weight / body weight + systemic / in life observation / body weight / body weight gain + systemic / in…

Compound: O=S(=O)([O-])C(F)(F)C(F)(F)C(F)(F)C(F)(F)F.[K+] [PFBS-K]
- LEL (rat [1]; [19]): 30 mg/kg/day
- NEL (rat [1]; [19]): < 30 mg/kg/day
- LOAEL (rat [1]; [20]): > 1000 mg/kg/day
- NOAEL (rat [1]; [20]): ≥ 1000 mg/kg/day
- LOAEL (rat [1]; [21]): > 1000 mg/kg/day
- NEL (rat [1]; [21]): 100 mg/kg/day
- NOAEL (rat [1]; [21]): ≥ 1000 mg/kg/day
- LEL (rat [1]; group: parental, systemic / pathology microscopic / kidney / edema + systemic / pathology microscopic / kidney / hyperplasia + systemic / organ weight / …): 300 mg/kg/day
- LOAEL (rat [2]; [22]): > 600 mg/kg/day
- NOAEL (rat [2]; [22]): ≥ 600 mg/kg/day
- LEL (rat [2]; [23]): 60 mg/kg/day
- NEL (rat [2]; [23]): < 60 mg/kg/day

Compound: Nc1ccc(S(=O)(=O)c2ccc(N)cc2)cc1 [Dapsone]
- LOAEL (mouse [3]; [24]): 75 mg/kg/day
- NOAEL (mouse [3]; [24]): < 75 mg/kg/day
- LEL (mouse [3]; [25]): 75 mg/kg/day
- NEL (mouse [3]; [25]): < 75 mg/kg/day
- LEL (mouse [4]): 300 mg/kg/day
- LOAEL (mouse [4]): > 7500 mg/kg/day
- NEL (mouse [4]): < 300 mg/kg/day
- NOAEL (mouse [4]): ≥ 7500 mg/kg/day
- LEL (rat [5]): 30 mg/kg/day
- LOAEL (rat [5]): > 60 mg/kg/day
- NEL (rat [5]): < 30 mg/kg/day
- NOAEL (rat [5]): ≥ 60 mg/kg/day
- LEL (rat [6]): 60 mg/kg/day
- LOAEL (rat [6]): 60 mg/kg/day
- NEL (rat [6]): < 60 mg/kg/day
- NOAEL (rat [6]): < 60 mg/kg/day
- LEL (mouse [7]; [26]): 200 mg/kg/day
- LOAEL (mouse [7]; [26]): > 200 mg/kg/day
- NEL (mouse [7]; [26]): 100 mg/kg/day
- NOAEL (mouse [7]; [26]): ≥ 200 mg/kg/day
- LOAEL (mouse [7]; [27]): > 200 mg/kg/day
- NOAEL (mouse [7]; [27]): ≥ 200 mg/kg/day
- LEL (mouse [7]; [28]): 50 mg/kg/day
- NEL (mouse [7]; [28]): < 50 mg/kg/day

Compound: CON(C)C(=O)Nc1ccc(Oc2ccc3c(c2)OC(C)(OC)CC3(C)C)cc1 (configuration not stated) [Metobenzuron]
- LEL (rat [8]; [29]): 7.29 mg/kg/day
- LOAEL (rat [8]; [29]): 45 mg/kg/day
- NEL (rat [8]; [29]): < 7.29 mg/kg/day
- NOAEL (rat [8]; [30]): 6.05 mg/kg/day
- LEL (rat [9]; [24]): 4.4 mg/kg/day
- LOAEL (rat [9]; [29]): 23.1 mg/kg/day
- NEL (rat [9]; [30]): 1.5 mg/kg/day
- NOAEL (rat [9]; [30]): 4.4 mg/kg/day
- LOAEL (rat [10]; group: offspring, systemic / in life observation / body weight / offspring (pup) weight gain): 18.8 mg/kg/day
- LEL (rat [10]; [31]): 18.8 mg/kg/day
- NEL (rat [10]; [31]): 3.75 mg/kg/day
- NOAEL (rat [10]; [31]): 3.75 mg/kg/day
- LEL (rat [10]; [32]): 18.8 mg/kg/day
- LOAEL (rat [10]; [32]): 37.5 mg/kg/day
- NEL (rat [10]; [32]): 3.75 mg/kg/day
- NOAEL (rat [10]; [32]): 18.8 mg/kg/day
- LEL (rat [10]; [33]): 18.8 mg/kg/day
- LOAEL (rat [10]; [33]): 18.8 mg/kg/day
- NEL (rat [10]; [34]): 3.75 mg/kg/day
- NOAEL (rat [10]; [34]): 3.75 mg/kg/day
- LEL (dog [11]): 25 mg/kg/day
- LOAEL (dog [11]): 25 mg/kg/day
- NEL (dog [11]): 5 mg/kg/day
- NOAEL (dog [11]): 5 mg/kg/day
- LEL (mouse [12]; [35]): 308 mg/kg/day
- LOAEL (mouse [12]; [35]): > 308 mg/kg/day
- NEL (mouse [12]; [35]): 91 mg/kg/day
- NOAEL (mouse [12]; [35]): ≥ 308 mg/kg/day
- LOAEL (mouse [12]; [36]): 91 mg/kg/day
- NOAEL (mouse [12]; [36]): 20 mg/kg/day
- LEL (mouse [12]; [37]): 25 mg/kg/day
- NEL (mouse [12]; [37]): < 25 mg/kg/day
- LOAEL (mouse [13]; [38]): 139 mg/kg/day
- NOAEL (mouse [13]; [38]): 41.1 mg/kg/day
- LEL (mouse [13]; [39]): 6.9 mg/kg/day
- NEL (mouse [13]; [39]): < 6.9 mg/kg/day
- LEL (rat [14]; [40]): 25 mg/kg/day
- NEL (rat [14]; [40]): < 25 mg/kg/day
- LOAEL (rat [14]; [41]): 50 mg/kg/day
- NOAEL (rat [14]; group: developmental, systemic / in life observation / body weight / fetal weight + developmental / developmental malformation / bone / absent + developmental / …): 25 mg/kg/day
- LEL (rat [14]; [42]): 25 mg/kg/day
- LOAEL (rat [14]; [42]): 25 mg/kg/day
- NEL (rat [14]; [42]): < 25 mg/kg/day
- NOAEL (rat [14]; [42]): < 25 mg/kg/day
- LOAEL (rabbit; [41]): 100 mg/kg/day
- LEL (rabbit; [43]): 100 mg/kg/day
- NEL (rabbit; [43]): 50 mg/kg/day
- NOAEL (rabbit; [43]): 50 mg/kg/day
- LEL (rabbit; [44]): 100 mg/kg/day
- LOAEL (rabbit; [44]): 100 mg/kg/day
- NEL (rabbit; [44]): 50 mg/kg/day
- NOAEL (rabbit; [44]): 50 mg/kg/day
- LEL (dog [15]): 75 mg/kg/day
- LOAEL (dog [15]): 75 mg/kg/day
- NEL (dog [15]): 5 mg/kg/day
- NOAEL (dog [15]): 5 mg/kg/day

Compound: O=C([O-])C(F)(F)C(F)(F)C(F)(F)C(F)(F)C(F)(F)F.[Na+] [Sodium perfluorohexanoate]
- LOAEL (rat [16]; [45]): > 500 mg/kg/day
- NOAEL (rat [16]; [45]): ≥ 500 mg/kg/day
- LEL (rat [16]; [46]): 20 mg/kg/day
- NEL (rat [16]; [46]): < 20 mg/kg/day
- LEL (rat [17]; [47]): 500 mg/kg/day
- LOAEL (rat [17]; [47]): > 500 mg/kg/day
- NEL (rat [17]; [47]): 100 mg/kg/day
- NOAEL (rat [17]; [47]): ≥ 500 mg/kg/day
- LEL (rat [17]; group: parental, systemic / in life observation / body weight / body weight gain): 100 mg/kg/day
- LOAEL (rat [17]; [48]): > 500 mg/kg/day
- NEL (rat [17]; [48]): 20 mg/kg/day
- NOAEL (rat [17]; [48]): ≥ 500 mg/kg/day
- LEL (rat [18]; [41]): 500 mg/kg/day
- LOAEL (rat [18]; [41]): > 500 mg/kg/day
- NEL (rat [18]; [41]): 100 mg/kg/day
- NOAEL (rat [18]; [41]): ≥ 500 mg/kg/day
- LEL (rat [18]; [49]): 500 mg/kg/day
- LOAEL (rat [18]; [49]): > 500 mg/kg/day
- NEL (rat [18]; [49]): 100 mg/kg/day
- NOAEL (rat [18]; [49]): ≥ 500 mg/kg/day
